Test results as given in the CheMixHub ionic liquid set.

Assay: xn = mol fraction of the nth substance listed
Conditions: 100 kPa

OC[C@H]1O[C@H](O[C@H]2[C@H](O)[C@@H](O)C(O)O[C@@H]2CO)[C@H](O)[C@@H](O)[C@@H]1O (stereo not given in full) + CCCC[n+]1ccn(C)c1.F[P-](F)(F)(F)(F)F + O
viscosity [mPa·s]
Conditions | 293.15 K | 298.15 K | 303.15 K | 308.15 K | 313.15 K
x2 = 0, x1 = 0.0001791 | 1.019 | 0.9 | 0.807 | 0.721 | 0.657
x2 = 0, x1 = 0.0005383 | 1.027 | 0.911 | 0.816 | 0.733 | 0.667
x2 = 0, x1 = 0.0008971 | 1.038 | 0.922 | 0.827 | 0.742 | 0.675
x2 = 0, x1 = 0.001255 | 1.049 | 0.931 | 0.832 | 0.747 | 0.68
x2 = 0, x1 = 0.001615 | 1.059 | 0.94 | 0.84 | 0.755 | 0.686
x2 = 0.0001835, x1 = 0.001259 | 1.059 | 0.947 | 0.86 | 0.775 | 0.69
x2 = 0.0001835, x1 = 0.00162 | 1.07 | 0.956 | 0.866 | 0.782 | 0.696
x2 = 0.0001836, x1 = 0.0008988 | 1.049 | 0.937 | 0.851 | 0.768 | 0.684
x2 = 0.0001837, x1 = 0.0001798 | 1.03 | 0.92 | 0.834 | 0.751 | 0.667
x2 = 0.0001837, x1 = 0.0005398 | 1.037 | 0.926 | 0.841 | 0.76 | 0.676
x2 = 0.0005376, x1 = 0.001627 | 1.084 | 0.97 | 0.873 | 0.783 | 0.709
x2 = 0.0005378, x1 = 0.001265 | 1.074 | 0.96 | 0.864 | 0.776 | 0.702
x2 = 0.000538, x1 = 0.0009039 | 1.064 | 0.949 | 0.856 | 0.769 | 0.695
x2 = 0.0005382, x1 = 0.0005419 | 1.052 | 0.939 | 0.846 | 0.76 | 0.688
x2 = 0.0005384, x1 = 0.0001809 | 1.043 | 0.93 | 0.837 | 0.752 | 0.68
x2 = 0.0008951, x1 = 0.001637 | 1.098 | 0.976 | 0.878 | 0.792 | 0.713
x2 = 0.0008955, x1 = 0.001273 | 1.089 | 0.967 | 0.869 | 0.784 | 0.707
x2 = 0.0008958, x1 = 0.0009101 | 1.08 | 0.959 | 0.861 | 0.778 | 0.701
x2 = 0.0008961, x1 = 0.0005458 | 1.064 | 0.946 | 0.851 | 0.768 | 0.693
x2 = 0.0008964, x1 = 0.0001816 | 1.057 | 0.938 | 0.842 | 0.761 | 0.685
x2 = 0.00126, x1 = 0.0009162 | 1.084 | 0.969 | 0.876 | 0.79 | 0.708
x2 = 0.00126, x1 = 0.001282 | 1.096 | 0.979 | 0.883 | 0.797 | 0.714
x2 = 0.00126, x1 = 0.001648 | 1.106 | 0.989 | 0.893 | 0.804 | 0.721
x2 = 0.001261, x1 = 0.000183 | 1.061 | 0.948 | 0.858 | 0.774 | 0.693
x2 = 0.001261, x1 = 0.0005491 | 1.071 | 0.959 | 0.866 | 0.781 | 0.7
